Values of other authors, collected in US10456383B2, “Targeted approach in the management of Epidermolysis bullosa” (The Board of Trustees of the Leland Stanford Junior …, priority 2017, dated 2019).

Assays:
[1] = topical formulations, all cases; standard serum levels required for immunosuppression 5-15 ng/ml
[2] = ointment plasticized base containing no water (PCCA)

SMILES: CO[C@H]1C[C@@H]2CC[C@@H](C)[C@@](O)(O2)C(=O)C(=O)N2CCCC[C@H]2C(=O)O[C@H]([C@H](C)C[C@@H]2CC[C@@H](O)[C@H](OC)C2)CC(=O)[C@H](C)/C=C(\C)[C@@H](O)[C@@H](OC)C(=O)[C@H](C)C[C@H](C)/C=C/C=C/C=C/1C [Sirolimus]
- systemic level of rapamycin [1]: less than 2 ng/ml
- sirolimus stability [2]: at least 6 months
